Measured values reported in patent US20040097595A1, “Phthalamide derivatives, insecticides for agricultural and horticultural use and method for application thereof” (priority 2001, published 2004).

Tests used:
[1] = system: Diamond Back Moth (Plutella xylostella); experiment: Test Example 1: insecticidal effect on diamond back moth, Chinese cabbage seedling with eggs immersed in liquid chemical; format: in vivo; conditions: eggs on Chinese cabbage seedling immersed about 30 seconds, six days after immersion, 25° C.
Excerpt: Insecticidal Effect on Diamond Back Moth (Plutella xylostella)
Adult diamond back moths were released and allowed to oviposit on a Chinese cabbage seedling. Two days after the release, the seedling having the eggs deposited thereon was immersed for about 30 seconds in a liquid chemical prepared by diluting a preparation containing each compound listed in Table 1 or 2 as an active ingredient to adjust the prescribed concentration. After air-dryness, it was allowed to stand in a room thermostatted at 25° C. Six days after the immersion, the hatched insects were counted. The mortality was calculated according to the following equation and the insecticidal effect was judged according to the criterion shown below. The test was carried out with triplicate groups of 10 insects. [formula]

[2] = system: Common Cutworm (Spodoptera litura); experiment: Test Example 2: insecticidal effect on common cutworm, cabbage leaf immersion; format: in vivo; conditions: cabbage leaf immersed, second-instar larvae, eight days after inoculation, 25° C.
Excerpt: Insecticidal Effect on Common Cutworm (Spodoptera litura)
A piece of cabbage leaf (cultivar; Shikidori) was immersed for about 30 seconds in a liquid chemical prepared by diluting a preparation containing each compound listed in Table 1 or 2 as an active ingredient to adjust the prescribed concentration. After air-dryness, it was placed in a plastic Petri dish with a diameter of 9 cm and inoculated with second-instar larvae of common cutworm, after which the dish was closed and then allowed to stand in a room thermostatted at 25° C. Eight days after the inoculation, the dead and alive were counted. The mortality was calculated according to the following equation and the insecticidal effect was judged according to the criterion shown in Test Example 1. The test was carried out with triplicate groups of 10 insects. [formula]

Row | SMILES | Test Example 1 insecticidal effect (mortality grade) ([1]; 5 ppm) | Test Example 1 insecticidal effect (mortality grade) ([1]; 50 ppm) | Test Example 2 insecticidal effect (mortality grade) ([2]; 5 ppm) | Test Example 2 insecticidal effect (mortality grade) ([2]; 50 ppm) | mortality at 5 ppm ([1]; Plutella xylostella, 144 h, 5 ppm, read-out: Test Example 1 insecticidal effect (mortality grade)) [%] | mortality at 50 ppm ([1]; Plutella xylostella, 144 h, 50 ppm, read-out: Test Example 1 insecticidal effect (mortality grade)) [%] | mortality at 5 ppm ([2]; Spodoptera litura, 192 h, 5 ppm, read-out: Test Example 2 insecticidal effect (mortality grade)) [%] | mortality at 50 ppm ([2]; Spodoptera litura, 192 h, 50 ppm, read-out: Test Example 2 insecticidal effect (mortality grade)) [%]
1 | CSCC(C)(C)NC(=O)c1c(I)cccc1C(=O)Nc1ccc(C(F)(F)F)cc1Cl [Compound 1-20] | A (Mortality 100%) | A (Mortality 100%) | A (Mortality 100%) | A (Mortality 100%) | – | – | – | –
2 | C[S+]([O-])CC(C)(C)NC(=O)c1c(I)cccc1C(=O)Nc1ccc(C(F)(F)F)cc1Cl (centres unmarked) [Compound 1-21] | A (Mortality 100%) | A (Mortality 100%) | C (Mortality 89-80%) | A (Mortality 100%) | – | – | – | –
3 | CC(C)(CS(C)(=O)=O)NC(=O)c1c(I)cccc1C(=O)Nc1ccc(C(F)(F)F)cc1Cl [Compound 1-22] | A (Mortality 100%) | A (Mortality 100%) | C (Mortality 89-80%) | A (Mortality 100%) | – | – | – | –
4 | CSCC(C)(C)NC(=O)c1c(I)cccc1C(=O)Nc1ccc(-c2ccc(Cl)cc2)cc1Cl [Compound 1-38] | A (Mortality 100%) | A (Mortality 100%) | E (Mortality 49-0%) | A (Mortality 100%) | – | – | – | –
5 | CSCC(C)(C)NC(=O)c1c(I)cccc1C(=O)Nc1ccc(OC(F)F)c(Cl)c1Cl [Compound 1-43] | A (Mortality 100%) | A (Mortality 100%) | A (Mortality 100%) | A (Mortality 100%) | – | – | – | –
6 | C[S+]([O-])CC(C)(C)NC(=O)c1c(I)cccc1C(=O)Nc1ccc(OC(F)F)c(Cl)c1Cl (centres unmarked) [Compound 1-44] | A (Mortality 100%) | A (Mortality 100%) | E (Mortality 49-0%) | A (Mortality 100%) | – | – | – | –
7 | CC(C)(CS(C)(=O)=O)NC(=O)c1c(I)cccc1C(=O)Nc1ccc(OC(F)F)c(Cl)c1Cl [Compound 1-45] | A (Mortality 100%) | A (Mortality 100%) | E (Mortality 49-0%) | A (Mortality 100%) | – | – | – | –
8 | CSCC(C)(C)NC(=O)c1c(I)cccc1C(=O)Nc1ccc(OC(F)(F)Cl)cc1Cl [Compound 1-48] | A (Mortality 100%) | A (Mortality 100%) | A (Mortality 100%) | A (Mortality 100%) | – | – | – | –
9 | C[S+]([O-])CC(C)(C)NC(=O)c1c(I)cccc1C(=O)Nc1ccc(OC(F)(F)F)cc1Cl (centres unmarked) [Compound 1-52, N^1-[2-chloro-4-(trifluoromethoxy)phenyl]-N^2-(1,1-dimethyl-2methylsulfinylethyl)-3-iodophthalamide] | – | – | – | – | 100 | 100 | 100 | 100
10 | CSCC(C)(C)NC(=O)c1c(I)cccc1C(=O)Nc1ccc(OC(F)(F)C(F)Cl)cc1Cl (centres unmarked) [Compound 1-58] | E (Mortality 49-0%) | A (Mortality 100%) | E (Mortality 49-0%) | A (Mortality 100%) | – | – | – | –
11 | CSCC(C)(C)NC(=O)c1c(I)cccc1C(=O)Nc1ccc(OC(C(F)(F)F)C(F)(F)F)cc1Cl [Compound 1-64] | A (Mortality 100%) | A (Mortality 100%) | A (Mortality 100%) | A (Mortality 100%) | – | – | – | –
12 | CSCC(C)(C)NC(=O)c1c(I)cccc1C(=O)Nc1ccc(OC(F)(F)C(F)C(F)(F)F)c(Cl)c1Cl (centres unmarked) [Compound 1-66, 3-iodo-N^1-[2,3-dichloro-4-(1,1,2,3,3,3-hexafluoropropoxy)phenyl]-N^2-[(1,1-dimethyl-2-methylthio)ethyl]phthalamide] | E (Mortality 49-0%) | A (Mortality 100%) | E (Mortality 49-0%) | A (Mortality 100%) | – | – | – | –
13 | C[S+]([O-])CC(C)(C)NC(=O)c1c(I)cccc1C(=O)Nc1ccc(OC(F)(F)C(F)C(F)(F)F)cc1Cl (centres unmarked) [Compound 1-67] | A (Mortality 100%) | A (Mortality 100%) | E (Mortality 49-0%) | A (Mortality 100%) | – | – | – | –
14 | CC(C)(CS(C)(=O)=O)NC(=O)c1c(I)cccc1C(=O)Nc1ccc(OC(F)(F)C(F)C(F)(F)F)cc1Cl (centres unmarked) [Compound 1-68] | A (Mortality 100%) | A (Mortality 100%) | E (Mortality 49-0%) | A (Mortality 100%) | – | – | – | –
15 | CSCC(C)(C)NC(=O)c1c(I)cccc1C(=O)Nc1ccc(OC(F)(F)C(F)C(F)(F)F)c(Cl)c1Cl (centres unmarked) [Compound 1-69] | A (Mortality 100%) | A (Mortality 100%) | E (Mortality 49-0%) | A (Mortality 100%) | – | – | – | –
16 | C[S+]([O-])CC(C)(C)NC(=O)c1c(I)cccc1C(=O)Nc1ccc(OC(F)(F)C(F)C(F)(F)F)c(Cl)c1Cl (centres unmarked) [Compound 1-70] | A (Mortality 100%) | A (Mortality 100%) | E (Mortality 49-0%) | A (Mortality 100%) | – | – | – | –
17 | CC(C)(CS(C)(=O)=O)NC(=O)c1c(I)cccc1C(=O)Nc1ccc(OC(F)(F)C(F)C(F)(F)F)c(Cl)c1Cl (centres unmarked) [Compound 1-71] | A (Mortality 100%) | A (Mortality 100%) | E (Mortality 49-0%) | A (Mortality 100%) | – | – | – | –
18 | CSCC(C)(C)NC(=O)c1c(I)cccc1C(=O)Nc1cc(Cl)c(OC(F)(Cl)C(F)(Cl)C(F)(F)F)cc1Cl (centres unmarked) [Compound 1-73] | E (Mortality 49-0%) | A (Mortality 100%) | E (Mortality 49-0%) | A (Mortality 100%) | – | – | – | –
19 | CSCC(C)(C)NC(=O)c1c(I)cccc1C(=O)Nc1ccc(OC(F)(F)C(F)OC(F)(F)F)cc1Cl (centres unmarked) [Compound 1-74] | A (Mortality 100%) | A (Mortality 100%) | E (Mortality 49-0%) | A (Mortality 100%) | – | – | – | –
20 | C[S+]([O-])CC(C)(C)NC(=O)c1c(I)cccc1C(=O)Nc1ccc(OC(F)(F)C(F)OC(F)(F)F)cc1Cl (centres unmarked) [Compound 1-75] | A (Mortality 100%) | A (Mortality 100%) | E (Mortality 49-0%) | A (Mortality 100%) | – | – | – | –
